From paper PMC9036794, “Improving astaxanthin production in Escherichia coli by co-utilizing CrtZ enzymes with different substrate preference” (Microbial Cell Factories, 2022)

Assays:
Assay type in all cases: cell-based
PCcrtZ [1] = molecular target: T1, PCcrtZ (Paracoccus sp. PC1, UniProt Q44262); assay: astaxanthin formed in canthaxanthin-producing E. coli, HPLC; conditions: engineered E. coli Can004 background (Ast016, Ast017), shake flask, 30 °C; conversion to astaxanthin; whole-cell titre only
T1 construct: gene crtZ; synthesized gene, integrated into E. coli chromosome (manA site) under P-trc; whole-cell read-out
T1 sequence (Q44262 1-162): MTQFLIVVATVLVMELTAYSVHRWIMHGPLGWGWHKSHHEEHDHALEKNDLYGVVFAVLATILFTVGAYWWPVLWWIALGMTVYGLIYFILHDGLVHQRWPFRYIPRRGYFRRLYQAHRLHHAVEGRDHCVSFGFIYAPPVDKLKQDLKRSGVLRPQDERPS

PAcrtZ [2] = molecular target: T2, PAcrtZ (Pantoea agglomerans, UniProt E9LFG1); assay: as above; conditions: engineered E. coli Can004 background (Ast014, Ast015), shake flask, 30 °C; conversion to astaxanthin; whole-cell titre only
T2 construct: gene crtZ; gene integrated into E. coli chromosome (manA site) under P-trc; whole-cell read-out

crtW* = molecular target: T3, crtW* (Brevundimonas sp. NBRC 101024, UniProt Q4W8B8); assay: canthaxanthin formed in beta-carotene-producing E. coli, HPLC; conditions: engineered E. coli (Can003, Can004), shake flask, 30 °C; conversion to canthaxanthin; whole-cell titre only
T3 construct: integrated into E. coli chromosome (mgsA, lacZ sites) under P-trc; whole-cell read-out
T3 sequence (Q4W8B8 1-244): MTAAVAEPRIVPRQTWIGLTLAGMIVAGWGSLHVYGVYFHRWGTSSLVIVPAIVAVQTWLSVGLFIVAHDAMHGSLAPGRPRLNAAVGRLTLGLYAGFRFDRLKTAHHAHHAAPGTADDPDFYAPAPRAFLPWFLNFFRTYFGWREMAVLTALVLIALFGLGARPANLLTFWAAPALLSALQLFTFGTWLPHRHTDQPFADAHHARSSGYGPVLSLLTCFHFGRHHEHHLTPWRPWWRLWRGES

PCcrtZ [3] = molecular target: T1, PCcrtZ; assay: zeaxanthin formed in beta-carotene-producing E. coli, HPLC; conditions: engineered E. coli CAR032 background (Zea001, Zea002), shake flask, 30 °C; conversion to zeaxanthin, weak; whole-cell titre only
Text: zeaxanthin formed in beta-carotene-producing E. coli, HPLC on PCcrtZ | PCcrtZ from Paracoccus sp.

PAcrtZ [4] = molecular target: T2, PAcrtZ; assay: as above; conditions: engineered E. coli CAR032 background (Zea003, Zea004), shake flask, 30 °C; conversion to zeaxanthin; whole-cell titre only

T2 sequence (E9LFG1 entry or part of it): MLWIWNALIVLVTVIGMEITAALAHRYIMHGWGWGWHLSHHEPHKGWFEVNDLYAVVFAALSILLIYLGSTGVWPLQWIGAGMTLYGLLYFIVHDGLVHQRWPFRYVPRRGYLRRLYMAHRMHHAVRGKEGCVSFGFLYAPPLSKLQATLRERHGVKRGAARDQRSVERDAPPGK

Row | Compound | astaxanthin formed in canthaxanthin-producing E. coli, HPLC (PCcrtZ [1]) | astaxanthin formed in canthaxanthin-producing E. coli, HPLC (PAcrtZ [2]) | canthaxanthin formed in beta-carotene-producing E. coli, HPLC (crtW*) | zeaxanthin formed in beta-carotene-producing E. coli, HPLC (PCcrtZ [3]) | zeaxanthin formed in beta-carotene-producing E. coli, HPLC (PAcrtZ [4])
1 | CC1=C(/C=C/C(C)=C/C=C/C(C)=C/C=C/C=C(C)/C=C/C=C(C)/C=C/C2=C(C)C(=O)CCC2(C)C)C(C)(C)CCC1=O [canthaxanthin] | Ast016 (Can004 with one copy of PCcrtZ) produced similar amounts of astaxanthin | Ast014 (Can004 with one copy of PAcrtZ) | – | – | –
2 | CC1=C(/C=C/C(C)=C/C=C/C(C)=C/C=C/C=C(C)/C=C/C=C(C)/C=C/C2=C(C)CCCC2(C)C)C(C)(C)CCC1 [β-carotene] | – | – | CrtW converts β-carotene into keto-carotenoids | PCcrtZ from Paracoccus sp. PC1 showed weak activity in the conversion of β-carotene into zeaxanthin | PAcrtZ from P. agglomerans therefore exhibited a substrate preference for β-carotene
